The source of these data is patent publication US20250114460A1, “NOVEL PLK1 DEGRADATION INDUCING COMPOUND” (UPPTHERA, INC., priority 2021, published 2025).

SMILES strings stand for the structures.

Type in all cases: cell-based
In one assay the target is T1, PLK1 (Homo sapiens, UniProt P53350).
T1 construct: endogenous in cells; host or cells: HeLa LgBit (Plk1-HiBit KI): HeLa stably expressing LgBit, with a CRISPR/Cas9 knock-in of HiBit at the endogenous PLK1 locus
In words: Luciferase assay for PLK1 in HeLa LgBit (Plk1-HiBit KI) cell line. Particulars: 300 nM compound, luminescence after 9 hours. The essentials:
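Luminescence, followed in real time after adding compound at 300 nM and Endurazine substrate, is reported relative to DMSO-treated wells. Cells are a HeLa LgBit line with a Plk1-HiBit knock-in, synchronized by 2 mM thymidine for 24 h, released, and cultured 18 h before treatment.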

A further assay deals with MRC-5 cell line. Kind of assay: Cell viability assay for MRC-5 cell line (EZ-Cytox). Particulars: Homo sapiens, MRC5, 120 h; MRC-5 normal cell line, 5 days, 10000 nM to 1.52 nM; N.D. = no cytotoxicity until 10 μM; read-out: Activity: IC50 value of Exemplary Compound to MRC-5 cell line. The method, then:
4. Cell Viability Assay for MRC-5 Cell Line
(1) Culture of MRC-5 Cell Line
Passage of cultured cells was maintained within P15.
(2) Treatment of Compounds of the Present Invention
Then, it was cultured in 37° C.
(3) Cytotoxicity Experiment
CO2 incubator for 4 hours.

In a further assay the test system is NCI-H526 cell line. Kind of assay: Cell viability assay for H526 cell (EZ-Cytox). To be noted: Homo sapiens, NCI-H526, 120 h; H526 cells, 5 days, 3000 nM to 0.46 nM. The essentials: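 Read-out was EZ-Cytox colorimetric absorbance at 450 nm, taken after brief plate shaking, with IC50 derived. Before reading, H526 cells had been cultured with test compound for 5 days.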

T1 sequence (P53350 whole entry): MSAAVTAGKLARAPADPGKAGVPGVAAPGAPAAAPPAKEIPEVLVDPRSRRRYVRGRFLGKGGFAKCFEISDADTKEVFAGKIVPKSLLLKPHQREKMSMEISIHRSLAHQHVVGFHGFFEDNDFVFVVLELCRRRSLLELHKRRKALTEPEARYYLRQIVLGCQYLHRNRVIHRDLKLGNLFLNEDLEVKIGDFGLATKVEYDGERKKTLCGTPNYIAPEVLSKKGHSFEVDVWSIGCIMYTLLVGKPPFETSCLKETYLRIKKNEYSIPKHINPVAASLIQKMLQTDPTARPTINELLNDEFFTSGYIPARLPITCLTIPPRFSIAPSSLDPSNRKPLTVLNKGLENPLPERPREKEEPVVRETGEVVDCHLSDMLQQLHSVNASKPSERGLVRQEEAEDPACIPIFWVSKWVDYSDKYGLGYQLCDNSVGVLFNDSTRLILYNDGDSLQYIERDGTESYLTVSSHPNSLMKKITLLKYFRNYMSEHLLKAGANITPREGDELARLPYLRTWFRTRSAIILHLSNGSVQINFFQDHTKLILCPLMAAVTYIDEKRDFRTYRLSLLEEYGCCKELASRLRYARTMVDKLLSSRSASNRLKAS

For `COc1cc(C(=O)NC2CCN(C(=O)CCC3(O)CCN(c4cccc5c4C(=O)N(C4CCC(=O)NC4=O)C5=O)CC3)CC2)ccc1Nc1ncc2c(n1)N(C1CCCC1)CC(F)(F)C(=O)N2C` (stereo not drawn) [Compound 63, 4-((9-cyclopentyl-7,7-difluoro-5-methyl-6-oxo-6,7,8,9-tetrahydro-5H-pyrimido[4,5-b][1,4]diazepin-2-yl)amino)-N-(1-(3-(1-(2-(2,6-dioxopiperidin-3-yl)-1,3-dioxoisoindolin-4-yl)-4-hydroxypiperidin-4-yl)propanoyl)piperidin-4-yl)-3-methoxybenzamide], on PLK1, the “Activity: ratio of the luminescense value of each Exemplary Compound treatment group to DMSO treatment group” value (“Activity: ratio” for short) is given as “+++ (+++: <0.3)”. The IC50 in the assay with MRC-5 cell line was over 10 µM; with NCI-H526 cell line, under 50 nM.
`COc1cc(C(=O)NN2CCN(C(=O)CCC3CCN(c4ccc5c(c4)CN(C4CCC(=O)NC4=O)C5=O)CC3)CC2)ccc1Nc1ncc2c(n1)N(C(C)C)CC(F)(F)C(=O)N2C` (stereo not drawn) [Compound 59, 4-((7,7-difluoro-9-isopropyl-5-methyl-6-oxo-6,7,8,9-tetrahydro-5H-pyrimido[4,5-b][1,4]diazepin-2-yl)amino)-N-(4-(3-(1-(2-(2,6-dioxopiperidin-3-yl)-1-oxoisoindolin-5-yl)piperidin-4-yl)propanoyl)piperazin-1-yl)-3-methoxybenzamide]: the “Activity: ratio” value on PLK1 is reported as “++ (++<0.6)”. The IC50 with MRC-5 cell line was over 10 µM; in the assay on NCI-H526 cell line, under 30 nM.
For the compound `COc1cc(C(=O)NC2CCN(C(=O)CC3CN(c4ccc5c(c4)C(=O)N(C4CCC(=O)NC4=O)C5=O)C3)CC2)c(F)cc1Nc1ncc2c(n1)N(C1CCCC1)CC(F)(F)C(=O)N2C` (stereo not drawn) [Compound 205, 4-((9-cyclopentyl-7,7-difluoro-5-methyl-6-oxo-6,7,8,9-tetrahydro-5H-pyrimido[4,5-b][1,4]diazepin-2-yl)amino)-N-(1-(2-(1-(2-(2,6-dioxopiperidin-3-yl)-1,3-dioxoisoindolin-5-yl)azetidin-3-yl)acetyl)piperidin-4-yl)-2-fluoro-5-methoxybenzamide], the “Activity: ratio” value at PLK1 is “++ (++<0.6)”. Moreover, the IC50 is over 10 µM in the assay on MRC-5 cell line and under 50 nM with NCI-H526 cell line.
`COc1cc(C(=O)N2CCN(CCN3CCN(c4ccc5c(c4)C(=O)N(C4CCC(=O)NC4=O)C5=O)CC3)CC2)ccc1Nc1ncc2c(n1)N(C1CCCC1)CC(F)(F)C(=O)N2C` (stereo not drawn) [Compound 89, 5-(4-(2-(4-(4-((9-cyclopentyl-7,7-difluoro-5-methyl-6-oxo-6,7,8,9-tetrahydro-5H-pyrimido[4,5-b][1,4]diazepin-2-yl)amino)-3-methoxybenzoyl)piperazin-1-yl)ethyl)piperazin-1-yl)-2-(2,6-dioxopiperidin-3-yl)isoindoline-1,3-dione]: at PLK1, the “Activity: ratio” value is listed as “++ (++<0.6)”. Moreover, the figures for the IC50 in the assay with MRC-5 cell line and with NCI-H526 cell line were over 10 µM and under 400 nM, respectively.
